Read-outs that look alike come from different tables or passages of the source.

The conditions of this series: amide bond, DMF.
Setting [1] is: 15-membered ring, DIEA (active ester), 0.88 mM, 4 steps.
Setting [2] is: 15-membered ring, ONB active ester/DIEA, 1.06 mM, 5 steps.

“cyclo(-Arg-D-Glu(NHCH2 CH2 Ph)-Lys(COPh)-D-Trp-Leu-)” registered a ring closure, yield after HPLC (15-membered ring, DIEA (active ester), 3.63 mM, 5 steps) of 57.6%.

As for “cyclo(-Arg-D-Glu(NHCH2 CH2 Ph)-Lys(COPh)-D-Trp-Trp-)”, the ring closure, yield after HPLC (15-membered ring, ONB active ester/DIEA, 0.93 mM, 5 steps) was 13.9%.

For the setting “from H-Trp-pFPhe-dArg(Tos)-Phe-dAla-OH, 15-membered ring, PyBOP/DIEA, 25.0 °C, 2 steps”, `Cc1ccc(S(=O)(=O)NC(=N)NCCC[C@H]2NC(=O)[C@H](Cc3ccc(F)cc3)NC(=O)[C@H](Cc3c[nH]c4ccccc34)NC(=O)[C@@H](C)NC(=O)[C@H](Cc3ccccc3)NC2=O)cc1` [cyclo(-pFPhe-D-Arg(Tos)-Phe-D-Ala-Trp-)] yielded a ring closure, yield after HPLC of 58.8%.

For “cyclo(-D-Tyr-Arg-D-Trp-Leu-D-Lys(SO2 Nap(1))-)”, the ring closure, yield after HPLC (15-membered ring, DIEA (active ester), 3.28 mM, 5 steps) came to 54.3%.

Under setting [1], “cyclo(-Arg-D-Glu(NHCH2 Nap(1))-Tyr-D-Trp-Leu-)” yielded a ring closure, yield after HPLC of 56.7%.

“cyclo(-Arg-D-Lys(COCH2 Ph)-Tyr-D-Trp-Leu-)” showed a ring closure, yield after HPLC (15-membered ring, ONB active ester/DIEA, 0.89 mM, 5 steps) of 30.6%.

Under “15-membered ring, DIEA (active ester), 3.12 mM, 5 steps”, “cyclo (-Arg-D-Lys (COCH2 CH2 CH2 CH2 CH2 Ph)-Tyr-D-Trp-Leu-)” displayed a ring closure, yield after HPLC of 26.8%.

Under “15-membered ring, ONB active ester/DIEA, 1.08 mM, 5 steps”, “cyclo(-Arg-D-Glu(NHCH2 CH2 Ph)-Tyr-D-Trp-Phe-)” had a ring closure, yield after HPLC of 37%.

“cyclo(-Arg-D-Glu(NHCHPh2)-Tyr-D-Trp-Leu-)” showed a ring closure, yield after HPLC (15-membered ring, DIEA (active ester), 0.86 mM, 4 steps) of 26.1%.

Take `Cc1ccc(S(=O)(=O)NC(=N)NCCC[C@H]2NC(=O)[C@H](C)NC(=O)[C@H](Cc3c[nH]c4ccccc34)NC(=O)[C@@H](C)NC(=O)[C@H](Cc3ccccc3)NC2=O)cc1` [cyclo(-Ala-D-Arg(Tos)-Phe-D-Ala-Trp-)]: the ring closure, yield after HPLC (from H-Trp-Ala-dArg(Tos)-Phe-dAla-OH, 15-membered ring, PyBOP/DIEA, 25.0 °C, 2 steps) came out at 21.8%.

Compound `Cc1ccc(S(=O)(=O)NC(=N)NCCC[C@H]2NC(=O)[C@H](Cc3ccccc3)NC(=O)[C@H](Cc3c[nH]c4ccccc34)NC(=O)[C@@H](C)NC(=O)[C@H](Cc3ccc4ccccc4c3)NC2=O)cc1` [cyclo(-Phe-D-Arg(Tos)-Nal(2)-D-Ala-Trp-)] registered a ring closure, yield after HPLC (from H-Trp-Phe-dArg(Tos)-Nal(2)-dAla-OH, 15-membered ring, PyBOP/DIEA, 25.0 °C, 2 steps) of 15.5%.

As for cyclo(-Arg-D-Trp-Tyr-D-Trp-Leu-), for the setting “15-membered ring, HONB/DCC preactivation, DIEA, 1.01 mM, 5 steps”, the ring closure, yield after HPLC was found to be 11.5%.

The compound cyclo(-Arg-D-Glu(Php)-Tyr-D-Trp-Leu-) displayed a ring closure, yield after HPLC under setting [1] of 71.7%.

“cyclo(-Arg-D-Glu(NHCH2 CH2 Ph)-Lys(COPh)-D-Trp-Phe-)” gave a ring closure, yield after HPLC (15-membered ring, ONB active ester/DIEA, 1.28 mM, 5 steps) of 5.7%.

Compound “cyclo(-Arg-Lys(SO2 Nap(2))-Tyr-D-Trp-Leu-)” showed a ring closure, yield after HPLC under setting [2] of 48.3%.

cyclo(-Lys-D-Glu(Php)-Tyr-D-Trp-Leu-) registered a ring closure, yield after HPLC (15-membered ring, DIEA (active ester), 1.11 mM, 5 steps) of 23.5%.

Compound `Cc1ccc(S(=O)(=O)NC(=N)NCCC[C@H]2NC(=O)[C@H](Cc3ccccc3)NC(=O)[C@H](Cc3c[nH]c4ccccc34)NC(=O)[C@@H](C)NC(=O)[C@H](Cc3ccc(Cl)cc3)NC2=O)cc1` [cyclo(-Phe-D-Arg(Tos)-pClPhe-D-Ala-Trp-)] registered a ring closure, yield after HPLC (from H-Trp-Phe-dArg(Tos)-pClPhe-dAla-OH, 15-membered ring, PyBOP/DIEA, 25.0 °C, 2 steps) of 50.5%.

With `Cc1ccc(S(=O)(=O)NC(=N)NCCC[C@@H]2NC(=O)[C@H](Cc3ccccc3)NC(=O)[C@H](Cc3c[nH]c4ccccc34)NC(=O)[C@@H](C)NC(=O)[C@H](Cc3ccccc3)NC2=O)cc1` [cyclo(-Phe-Arg(Tos)-Phe-D-Ala-Trp-)], the ring closure, yield after HPLC (from H-Trp-Phe-Arg(Tos)-Phe-dAla-OH, 15-membered ring, PyBOP/DIEA, 25.0 °C, 2 steps) came out at 71.5%.

As to “cyclo(-Arg-D-Lys(SO2 Nap(2))-Trp-D-Trp-Leu-)”, under “15-membered ring, HONB/DCC preactivation, DIEA, 2.47 mM, 5 steps”, the ring closure, yield after HPLC amounted to 27.1%.

Compound “cyclo(-Arg-D-Glu(NHCH2 CH2 Ph)-Tyr-D-Trp-Trp-)” came in with a ring closure, yield after HPLC (15-membered ring, ONB active ester/DIEA, 1.33 mM, 5 steps) of 14.8%.

Compound `Cc1ccc(S(=O)(=O)NC(=N)NCCC[C@H]2NC(=O)[C@H](c3ccccc3)NC(=O)[C@H](Cc3c[nH]c4ccccc34)NC(=O)[C@@H](CO)NC(=O)[C@H](Cc3ccccc3)NC2=O)cc1` [cyclo(-Phg-D-Arg(Tos)-Phe-D-Ser-Trp-)] showed a ring closure, yield after HPLC (from H-dSer-Trp-Phg-dArg(Tos)-Phe-OH, 15-membered ring, PyBOP/DIEA, 25.0 °C, 2 steps) of 15.7%.

Compound “cyclo(-Arg-D-Glu((2)-MeOPhp)-Tyr-D-Trp-Leu-)” returned a ring closure, yield after HPLC (15-membered ring, DIEA (active ester), 1.07 mM, 4 steps) of 9.2%.

`Cc1ccc(S(=O)(=O)NC(=N)NCCC[C@H]2NC(=O)[C@H](Cc3ccccc3)NC(=O)[C@H](Cc3c[nH]c4ccccc34)NC(=O)[C@@H](C)NC(=O)[C@H](Cc3ccc(F)cc3)NC2=O)cc1` [cyclo(-Phe-D-Arg(Tos)-pFPhe-D-Ala-Trp-)] came in with a ring closure, yield after HPLC (from H-Trp-Phe-dArg(Tos)-pFPhe-dAla-OH, 15-membered ring, PyBOP/DIEA, 25.0 °C, 2 steps) of 65.6%.

Compound cyclo(-Arg-Glu(Php)-Tyr-D-Trp-Leu-) displayed a ring closure, yield after HPLC (15-membered ring, DIEA (active ester), 1.1 mM, 5 steps) of 22.7%.

With `Cc1ccc(S(=O)(=O)NC(=N)NCCC[C@H]2NC(=O)[C@H](Cc3ccccc3)NC(=O)[C@H](Cc3c[nH]c4ccccc34)NC(=O)[C@@H](CC(C)C)NC(=O)[C@H](Cc3ccccc3)NC2=O)cc1` [cyclo(-Phe-D-Arg(Tos)-Phe-D-Leu-Trp-)], the ring closure, yield after HPLC (from H-dLeu-Trp-Phe-dArg(Tos)-Phe-OH, 15-membered ring, PyBOP/DIEA, 25.0 °C, 2 steps) was 29.4%.

cyclo(-Arg-D-Lys(Ac)-Tyr-D-Trp-Leu-) had a ring closure, yield after HPLC (15-membered ring, ONB active ester/DIEA, 1.36 mM, 5 steps) of 23.9%.

“cyclo(-Arg-D-Glu(NHCH2 CH2 Ph)-Tyr-D-Trp-Leu-)” gave a ring closure, yield after HPLC (15-membered ring, DIEA (active ester), 0.9 mM, 4 steps) of 30.9%.

The compound “cyclo(-Arg-D-Glu(NHCH2 Ph)-Tyr-D-Trp-Leu-)” yielded a ring closure, yield after HPLC (15-membered ring, DIEA (active ester), 0.91 mM, 4 steps) of 27.1%.

Turning to cyclo(-Arg-D-Glu(Bzlp)-Tyr-D-Trp-Leu-), the ring closure, yield after HPLC (15-membered ring, DIEA (active ester), 1.09 mM, 4 steps) amounted to 21.6%.

Under setting [2], “cyclo(-Arg-D-Lys(SO2 Nap(1))-Tyr-D-Trp-Leu-)” showed a ring closure, yield after HPLC of 30%.

For the setting “15-membered ring, ONB active ester/DIEA, 1.19 mM, 5 steps”, “cyclo(-Lys(isopropyl)-D-Glu(NHCH2 CH2 Ph)-Tyr-D-Lys(Nic)-Leu-)” had a ring closure, yield after HPLC of 44.3%.

Turning to “cyclo(-Leu-D-Arg-Lys(SO2 Nap(1)-D-Tyr-Trp-)”, the ring closure, yield after HPLC (15-membered ring, DIEA, 1.1 mM, 5 steps) was determined as 21.1%.

As to “cyclo(-Arg-D-Lys(COCH2 CH2 CH2 Ph)-Tyr-D-Trp-Leu-)”, the ring closure, yield after HPLC (15-membered ring, DIEA (active ester), 3.18 mM, 5 steps) was 28.7%.

“cyclo(-Arg-D-Glu((4)-MeOPhp)-Tyr-D-Trp-Leu-)”: under “15-membered ring, DIEA (active ester), 1.07 mM, 5 steps”, the ring closure, yield after HPLC came out at 24.4%.

On to “cyclo(-D-Leu-Lys(SO2 Nap(1))-D-Tyr-Arg-D-Trp-)”, for which the ring closure, yield after HPLC (15-membered ring, ONB active ester/DIEA, 3.3 mM, 5 steps) was 52.2%.

In turn, “cyclo(-Arg-D-Glu((2)-Pyp)-Tyr-D-Trp-Leu-)” came in with a ring closure, yield after HPLC (15-membered ring, DIEA (active ester), 1.1 mM, 4 steps) of 12.1%.

Where the note is “15-membered ring, ONB active ester/DIEA, 2.62 mM, 5 steps”, cyclo(-Arg-D-Lys(CoPh)-Tyr-D-Trp-Leu-) displayed a ring closure, yield after HPLC of 32.7%.

Where the note is “15-membered ring, PyBOP/DIEA, 25.0 °C”, “cyclo(-Thg(2)-D-Arg(Tos)-Phe-D-Ala-Trp-)” returned a ring closure, yield after HPLC of 13.8%.

As to `Cc1ccc(S(=O)(=O)NC(=N)NCCC[C@H]2NC(=O)[C@H](c3ccccc3)NC(=O)[C@H](Cc3c[nH]c4ccccc34)NC(=O)[C@@H](C)NC(=O)[C@H](Cc3ccccc3)NC2=O)cc1` [cyclo(-Phg-D-Arg(Tos)-Phe-D-Ala-Trp-)], the ring closure, yield after HPLC (from H-dAla-Trp-Phg-dArg(Tos)-Phe-OH, 15-membered ring, PyBOP/DIEA, 25.0 °C, 2 steps) stood at 28.3%.

On to cyclo(-Tyr-D-Trp-Leu-Arg-Trp-Pro-), for which the ring closure, yield after HPLC (18-membered ring, DIEA, 1.0 mM, 5 steps) was found to be 15.3%.

Regarding `Cc1ccc(S(=O)(=O)NC(=N)NCCC[C@H]2NC(=O)[C@H](Cc3ccccc3)NC(=O)[C@H](Cc3c[nH]c4ccccc34)NC(=O)[C@@H](C)NC(=O)[C@H](Cc3ccccc3)NC2=O)cc1` [cyclo(-Phe-D-Arg(Tos)-Phe-D-Ala-Trp-)], the ring closure, yield after HPLC (from H-Trp-Phe-dArg(Tos)-Phe-dAla-OH, 15-membered ring, PyBOP/DIEA, 25.0 °C, 2 steps) was determined as 10.8%.

Compound `COc1cc(C)c(S(=O)(=O)NC(=N)NCCC[C@H]2NC(=O)[C@H](Cc3ccccc3)NC(=O)[C@H](Cc3c[nH]c4ccccc34)NC(=O)[C@@H](C)NC(=O)[C@H](Cc3ccccc3)NC2=O)c(C)c1C` [cyclo(-Phe-D-Arg(Mtr)-Phe-D-Ala-Trp-)] displayed a ring closure, yield after HPLC (from H-dAla-Trp-Phe-dArg(Mtr)-Phe-OH, 15-membered ring, PyBOP/DIEA, 1.0 mM, 25.0 °C, 2 steps) of 5.8%.
